The record followed here is patent publication US20050033050A1, “Phthalazinones and the use thereof in order to combat undesirable microorganisms” (priority 2001, published 2005).

Like-named read-outs stand apart in the source and are kept apart here.

Data set [1] is described as follows: logP by HPLC (EEC directive 79/831 Annex V.A8, gradient method). The class given is physicochemical. As to conditions: for log P*: Table 1; for logP*: compounds of formula (IV), Table 2.
Data set [2] concerns Erysiphe graminis fsp. tritici. The data set can be described thus: Erysiphe test (wheat)/protective. The conditions noted are these: protective, application rate 500 g/ha, evaluation 7 days after inoculation, 100% = no infection. The class given is in vivo. The protocol:
To produce a suitable preparation of active compound, I part by weight of active compound is mixed with the stated amounts of solvent and emulsifier, and the concentrate is diluted with water to the desired concentration.
To test for protective activity, young plants are sprayed with the preparation of active compound at the stated application rate.
After the spray coating has dried on, the plants are dusted with spores of Erysiphe graminis fsp. tritici.
(§1) The plants are placed in a greenhouse at a temperature of about 20° C. and a relative atmospheric humidity of about 80% to promote the development of mildew pustules.
(§2) Evaluation is carried out 7 days after the inoculation. 0% means an efficacy which corresponds to that of the control, whereas an efficacy of 100% means that no infection is observed.

For data set [3], the system named is Erysiphe graminis f.sp. hordei. Briefly: Erysiphe test (cucumber)/protective. The class given is in vivo. As to conditions: protective, application rate 500 g/ha, evaluation 7 days after inoculation; 100% = no infection. The protocol:
To produce a suitable preparation of active compound, 1 part by weight of active compound is mixed with the stated amounts of solvent and emulsifier, and the concentrate is diluted with water to the desired concentration. To test for protective activity, young plants are sprayed with the preparation of active
compound at the stated application rate.
After the spray coating has dried on, the plants are dusted with spores of Erysiphe graminis f.sp. hordei.
as §1, §2

[4] abbreviates: gradient method, acetonitrile/0.1% aqueous phosphoric acid, compounds of formula (I), Table 1, read-out: log P*.
[5] abbreviates: preparation example, read-out: HPLC: logP.
Setting [6] is: gradient method, acetonitrile/0.1% aqueous phosphoric acid, compounds of formula (I).
Where [7] appears, read: gradient method, acetonitrile/0.1% aqueous phosphoric acid.

Take `CCCOc1nn(CCC(C)C)c(=O)c2ccc(Br)cc12` [Example 2, 6-bromo-2-isopentyl-4-propoxy-1 (2H)-phthalazinone]: the chromatographic logP in data set [1] (setting [4]) and in data set [1] (setting [5]) was 5.91 in each case.
Take `CC(C)COc1nn(CC(C)C)c(=O)c2cc(Cl)c(Cl)cc12` [Example 13]: in data set [1] (setting [6]), the “log P*” value is 6.46.
On to `CCCOc1cc2c(=O)n(CCC)nc(OCCC)c2cc1F` [Example 16], for which the “log P*” value in data set [1] (setting [6]) was determined as 5.26.
Regarding `CCCCOc1nn(CCCC)c(=O)c2cc(Cl)c(Cl)cc12` [Example 11], in data set [1] (setting [6]), the “log P*” value is listed as 6.71. Also, the efficacy in data set [2] and in data set [3] was 100% throughout.
In the case of `CCC(C)Oc1nn(C(C)CC)c(=O)c2cc(Cl)c(Cl)cc12` (stereo not shown) [Example 12], the “log P*” value in data set [1] (setting [6]) was 3.62.
As for `CCCOc1n[nH]c(=O)c2ccc(Br)cc12` [(IV-3)], the “logP*” value in data set [1] (setting [7]) is given as 2.71.
Regarding `CC(C)COc1n[nH]c(=O)c2cc(Cl)c(Cl)cc12` [(IV-6)], in data set [1] (setting [7]), the “logP*” value is on record as 3.64.
Take `CCCOc1nn(CCC)c(=O)c2cc(Cl)c(Cl)cc12` [Example 10]: in data set [1] (setting [6]), the “log P*” value is 5.51. The efficacy in data set [2] turned out to be 100%.
Take `CCC(C)Oc1n[nH]c(=O)c2cc(Br)ccc12` (stereo not shown) [Example (IV-1), 7-bromo-4-sec-butoxy-1 (2H)-phthalazinone]: the chromatographic logP in data set [1] (setting [5]) is 3.01.
Regarding `CCCOc1nn(CCC)c(=O)c2cc(Br)ccc12` [Example 1, 7-bromo-4-propoxy-2-propyl-1(2H)-phthalazinone], the chromatographic logP in data set [1] (setting [4]) and in data set [1] (setting [5]) was 4.76 in each case.
`CCCOc1cc2c(OCCC)nn(CCC)c(=O)c2cc1F` [Example 15]: the “log P*” value in data set [1] (setting [6]) turned out to be 4.82.
Turning to `CCC(C)Oc1nn(C(C)CC)c(=O)c2cc(Br)ccc12` (stereo not shown) [Example 9], the “log P*” value in data set [1] (setting [6]) is listed as 5.52.
For the compound `CCCOc1nn(CCC)c(=O)c2ccc(Br)cc12` [Example 4], the “log P*” value in data set [1] (setting [6]) turned out to be 4.8. In data set [2], this compound displayed an efficacy of 100%.
With `CCC(C)Oc1n[nH]c(=O)c2cc(Cl)c(Cl)cc12` (stereo not shown) [(IV-5)], the “logP*” value in data set [1] (setting [7]) amounted to 3.62.
Consider `CCCOc1n[nH]c(=O)c2cc(Br)ccc12` [(IV-2)], for which the “logP*” value in data set [1] (setting [7]) was 2.66.
`CCC(C)Oc1n[nH]c(=O)c2ccc(Br)cc12` (stereo not shown) [(IV-4)]: the “logP*” value in data set [1] (setting [7]) is reported as 3.12.
